# Experimental data: patent US9132108B2, “Pharmaceutical composition for ameliorating and/or preventing leptin resistance, and use thereof” (HIROSHIMA UNIVERSITY, priority 2009, dated 2015)
# Tests used:
# [1] = marketed non-steroidal anti-inflammatory agent; cited from earlier work
# mice = test: Open Field Test, amounts of mice activity (Example 6); type: in vivo, mouse; conditions: Group 3 or 4 (flurbiprofen) vs Group 1 or 2 (no flurbiprofen); 10 mg/kg per day orally, 8 weeks
# Procedure: In order to measure the amounts of mice activity, an Open Field Test was carried out. Specifically, 4 weeks-old male mice (C57BL/6 Cr Slc) were divided into four groups each consisting of 15-16 mice. Mice of individual groups were given diets as follows for 8 weeks similarly with Example 5. • Group 1: Normal diet (10 kcal % fat) only • Group 2: High-fat diet (60 kcal % fat) only • Group 3: Normal diet+flurbiprofen • Group 4: High-fat diet+flurbiprofen
# Flurbiprofen (F8514, produced by SIGMA) was diluted with drinking water so that the administration amount of flurbiprofen would be 10 mg/kg per day, and was orally administered to the mice in the form of drinking water.
# The mice raised for 8 weeks with high-fat diet or normal diet were subjected to the Open Field Test.
# The Open Field Test is a test in which mice were put at the center of a square field (48×48 cm) and the amounts of activity of the mice in the new environment were measured in numerals. Specifically, with respect to each of the mice, the amount of activity per 5 minutes was measured using a locomotor activity measuring device (SCANET MV-10MT, produced by Toyo Sangyo Co., Ltd.). The measurements were performed between 16:30 and 17:30 which was a time before feeding behavior of the mice would become active. […]
# [2] = system: mice given high-fat diet (leptin resistance); test: Body weight of mice given high-fat or normal diet with flurbiprofen for 8 weeks (Example 1); type: in vivo, mouse; conditions: approximately 10 mg/kg per day orally in drinking water
# Procedure: In the Examples, 4 weeks-old male mice (C57BL/6 Cr Slc, SHIMIZU Laboratory Supplies Co., Ltd.) were used as laboratory animals. All the animal tests in the Examples were carried out according to the NIH Guide for Care and Use of Laboratory Animals.
# Mice were divided into four groups each consisting of 7-8 mice. Mice of individual groups were given diets as follows. • Group 1: Normal diet (10 kcal % fat, D12450B, produced by Research Diets, Inc.) only • Group 2: High-fat diet (60 kcal % fat, D12492, produced by Research Diets, Inc.) only • Group 3: Normal diet+flurbiprofen (F8514, produced by SIGMA) • Group 4: High-fat diet+flurbiprofen (F8514, produced by SIGMA)
# Flurbiprofen was diluted with drinking water so that the administration amount of flurbiprofen would be approximately 10 mg/kg per day, and was orally administered to the mice in the form of drinking water. Thereafter, the mice were weighed every 7 days.
# FIG. 3 is a graph showing changes in body weights of the mice of individual groups during 8 weeks after flurbiprofen administration. Values in the graph of FIG. 3 are averages of body weights of mice of each group (± their standard deviations) (n=7-8 with respect to each group). Further, statistic analysis was carried out using t-test.
# mice given high-fat diet = test: High-fat diet-induced accumulation of visceral fat (Example 5); type: in vivo, mouse; conditions: Group 4 (high-fat diet+flurbiprofen) vs Group 2; 10 mg/kg per day orally, 8 weeks; significance level <5%
# Procedure: 4 weeks-old mice (C57BL/6 Cr Slc) were divided into four groups each consisting of 7-8 mice. Mice of individual groups were given diets as follows for 8 weeks similarly with Example 4. • Group 1: Normal diet (10 kcal % fat) only • Group 2: High-fat diet (60 kcal % fat) only • Group 3: Normal diet+flurbiprofen • Group 4: High-fat diet+flurbiprofen Flurbiprofen (F8514, produced by SIGMA) was diluted with drinking water so that the administration amount of flurbiprofen would be 10 mg/kg per day, and was orally administered to the mice in the form of drinking water. The mice raised for 8 weeks with high-fat diet or normal diet were cut open along a median line, and the amount of fatty tissue (visceral fat) was measured. Visceral fat was extracted from the abdomen of a mouse, and wet weight of the fat was measured. […] FIG. 9 is a graph showing the amounts of fat contents of mice of individual groups to which flurbiprofen had been administered for 8 weeks. Values in the graph of FIG. 9 are averages of the amounts (g) of fat of mice of each group (± their standard deviations) (n=7-8 with respect to each group). Further, statistic analysis was carried out using t-test.
# [3] = system: mice given high-fat diet for 6 months (leptin resistance); test: Visceral fat of leptin-resistant mice, therapeutic effect (Example 8); type: in vivo, mouse; conditions: 3 weeks after flurbiprofen administration, 3 mg/kg per day orally; vs control group; P<0.01
# Excerpt: In Example 8, effectiveness of flurbiprofen in ameliorating leptin resistance was confirmed by measuring a change in body weight of mice as a reference index. Specifically, 4 weeks-old male mice (C57BL/6 Cr Slc) had been given high-fat diet for 6 months so that leptin resistance would be induced in the mice. Thereafter, the mice were divided into two groups (each consisting of 14 mice), and the mice of individual groups were given the following diets for 3 weeks. • Control group (Cont): normal diet (10 kcal % fat) only • Flurbiprofen-administered group (Ful): normal diet+flurbiprofen Flurbiprofen (F8514, produced by SIGMA) was diluted with drinking water so that the administration amount of flurbiprofen would be 3 mg/kg per day, and was orally administered to the mice in the form of drinking water. The rates of change in body weight of the mice of individual groups were measured with the date when administration of flurbiprofen started (0 week) as a reference. Further, the amount of visceral fat (g) was measured. The visceral fat was extracted from abdomens of the mice and wet weight thereof was measured. FIG. 14 is a graph showing the amount of visceral fat (g) of the mice of the control group and the mice of the flurbiprofen-administered group which had been given normal diet for 3 weeks. […]
smiles,measurement,setting,value
C[C@@H](C(=O)O)c1ccc(-c2ccccc2)c(F)c1 [flurbiprofen],dependence and development of resistance,[1],no dependence on flurbiprofen or no development of resistance to flurbiprofen is observed
same,"amounts of activity (locomotor activity, counts/5 min)",mice,no significant difference in the amounts of activity
same,body weight,[2]; Group 3 (normal diet+flurbiprofen) vs Group 1 (normal diet only),no significant difference in body weight
same,body weight,"[2]; Group 4 (high-fat diet+flurbiprofen) vs Group 2 (high-fat diet only), significance level <5%",prevented an increase in body weight
same,"amount of fat content (visceral fat, wet weight)",mice given high-fat diet,significant decrease in the amount of fat content
same,amount of visceral fat,[3],significantly decreased
